Where two headings read alike, the source gives them in different places.
Test: Tissue distribution after single oral administration in mice
Type: in vivo, ICR mice
Settings: single oral 1 mg/kg; for half-life: read-out: T1/2 (elimination half-life) (converted); for AUC Ratio (AUC24 h, tissue / AUC24 h, plasma): 1 mg/kg
Procedure: Thirty-six ICR mice were fasted with water ad libitum for at least 12 h before oral administration of enavogliflozin and randomly divided into six groups (n = 6 per each sampling time point) and administered with an enavogliflozin solution at a dose of 1 mg/kg via oral gavage. Blood samples (approximately 0.2 mL) were collected at 0.5, 1, 2, 4, 8, 24 h via the abdominal artery. Subsequently, whole tissues, including stomach, small intestine, large intestine, liver, kidney, brain, heart, lung, spleen, and testis, were isolated. Blood samples were centrifuged at 12,000× g for 1 min to separate plasma. Tissue samples were minced thoroughly and homogenized with four volumes of saline using a tissue grinder. An aliquot (30 µL) of plasma and aliquots (50 µL) of tissue homogenate samples were stored at −80 °C until analysis.
Concentrations of enavogliflozin in plasma and tissue homogenate samples were analyzed using an Agilent 6430 triple quadrupole liquid chromatography-mass spectrometry (LC–MS/MS) system (Agilent, Wilmington, DE, USA) following a previously published method.
The data were expressed as the means ± standard deviation for the groups. Pharmacokinetic parameters, such as the area under the plasma concentration–time curve during the period of observation (AUClast), AUC to infinite time (AUC∞), clearance (CL), and volume of distribution at steady-state (Vd,ss), the terminal half-life (t1/2), and mean residence time (MRT) were calculated using non-compartment analysis with WinNonlin software (version 5.1; Pharsights, Cary, NC, USA). The AUC ratios were calculated by dividing the AUClast of enavogliflozin in the tissue samples by the plasma AUClast values of enavogliflozin [15].

OC[C@H]1O[C@@H](c2cc(Cc3ccc(C4CC4)cc3)c(Cl)c3c2CCO3)[C@H](O)[C@@H](O)[C@@H]1O [enavogliflozin, (2S,3R,4R,5S,6R)-2-(7-chloro-6-(4-cyclopropylbenzyl) -2,3-dihydrobenzofuran-4-yl)-6-(hydroxymethyl)tetrahydro-2H-pyran-3,4,5-triol]
Kp (male, ICR, mouse, kidney (versus plasma), kidney, read-out: AUC Ratio (AUC24 h, tissue / AUC24 h, plasma)): 41.9 | Kp (male, ICR, mouse, kidney and intestinal tract (versus plasma), read-out: AUC ratio of kidney and intestinal tract compared with plasma): > 10 | Kp (male, ICR, mouse, large intestine (versus plasma), range over stomach, small and large intestine, read-out: plasma AUC ratio, gastrointestinal tract): 8.5 to 12.1 | Kp (male, ICR, mouse, liver (versus plasma), liver, read-out: AUC Ratio (AUC24 h, tissue / AUC24 h, plasma)): 5.8 | Kp (male, ICR, mouse, heart, read-out: AUC Ratio (AUC24 h, tissue / AUC24 h, plasma)): 1.7 ± 0.2 | half-life (male, ICR, mouse, heart): 3.6 h | half-life (male, ICR, mouse, kidney): 29 h | Kp (male, ICR, mouse, large intestine, read-out: AUC Ratio (AUC24 h, tissue / AUC24 h, plasma)): 8.5 ± 4.5 | half-life (male, ICR, mouse, large intestine): 3.4 h | half-life (male, ICR, mouse, liver): 4.4 h | Kp (male, ICR, mouse, lung, read-out: AUC Ratio (AUC24 h, tissue / AUC24 h, plasma)): 2 ± 0.2 | half-life (male, ICR, mouse, lung): 9.6 h | AUC(0-t) (male, ICR, mouse, plasma, read-out: AUC24 h): 1360 ± 260 ng·h/mL | half-life (male, ICR, mouse, plasma): 3.7 h | Kp (male, ICR, mouse, small intestine, read-out: AUC Ratio (AUC24 h, tissue / AUC24 h, plasma)): 10.8 ± 3 | half-life (male, ICR, mouse, small intestine): 2.6 h | Kp (male, ICR, mouse, spleen, read-out: AUC Ratio (AUC24 h, tissue / AUC24 h, plasma)): 0.4 | half-life (male, ICR, mouse, spleen): 2.7 h | Kp (male, ICR, mouse, stomach, read-out: AUC Ratio (AUC24 h, tissue / AUC24 h, plasma)): 12.1 ± 7 | half-life (male, ICR, mouse, stomach): 3.4 h | Kp (male, ICR, mouse, testis, read-out: AUC Ratio (AUC24 h, tissue / AUC24 h, plasma)): 0.5 ± 0.1 | half-life (male, ICR, mouse, testis): 22 h | Kp (male, ICR, mouse, versus plasma, read-out: AUC ratio in stomach, small intestine, large intestine, liver): > 5 | Concentration in brain tissue (brain): not detected | AUC24 h (heart): 2.19 ± 0.35 µg·h/g | K (elimination constant) (heart): 0.194 h⁻¹ | AUC24 h (kidney): 54.5 ± 3.5 µg·h/g | K (elimination constant) (kidney): 0.024 h⁻¹ | AUC Ratio (AUC24 h, tissue / AUC24 h, plasma) (kidney): 41.9 ± 7.7 | AUC24 h (large intestine): 11.1 ± 4.3 µg·h/g | K (elimination constant) (large intestine): 0.204 h⁻¹ | AUC24 h (liver): 8.08 ± 1.1 µg·h/g | K (elimination constant) (liver): 0.159 h⁻¹ | AUC Ratio (AUC24 h, tissue / AUC24 h, plasma) (liver): 5.8 ± 0.4 | AUC24 h (lung): 3.04 ± 0.29 µg·h/g | K (elimination constant) (lung): 0.072 h⁻¹ | K (elimination constant) (plasma): 0.185 h⁻¹ | AUC24 h (small intestine): 14.2 ± 3.4 µg·h/g | K (elimination constant) (small intestine): 0.267 h⁻¹ | AUC24 h (spleen): 0.58 ± 0.11 µg·h/g | K (elimination constant) (spleen): 0.255 h⁻¹ | AUC24 h (stomach): 15.1 ± 6.4 µg·h/g | K (elimination constant) (stomach): 0.206 h⁻¹ | AUC24 h (testis): 0.95 ± 0.15 µg·h/g | K (elimination constant) (testis): 0.031 h⁻¹

— publication PMC9230590, “Pharmacokinetics and Tissue Distribution of Enavogliflozin in Mice and Rats” (Pharmaceutics, 2022)
